One assay has as its target 5-HT2C receptor. Briefly: [3H] 5-HT binding assay, 5-HT2C receptor. Particulars: Ki=IC50/(1+[L]/[Kd]), read-out: Binding test Ki, 5-HT2C receptor. The method, then: (§1) The 5-HT2C and 5-HT2A receptors: Carried out by [^3 H] 5-HT binding assay in accordance with the method of A. Pazos et al., Eur. J. Pharmacol., 106, 539-546 (1985) or S. Havlik and S. J. Peroutka, Brain Res., 584, 191-196 (1992).
(§2) Using the above method, a drug concentration which inhibits 50% of receptor binding of ligand (IC50 value) was calculated, and a Ki value which represents affinity for the receptor was obtained by the following formula.
(§3) ([L]: ligand concentration, [Kd]: dissociation constant)

A further assay has as its target 5-HT2A receptor (Homo sapiens, UniProt P28223). Briefly: biochemical. In kind it is binding. Here is the method:
as §1, §2, §3

The values that follow come from patent publication US6245796A, “Tricyclic pyrrole or pyrazole derivative” (priority 1997, dated 2001).

Where a name gives a salt, the structure may show the parent alone. Read-outs that look alike come from different tables or passages of the source.

A word on the Ki: it is a dissociation constant, usually derived from enzyme kinetics or from competition with a known ligand.

Chain of 5-HT2A receptor (P28223 whole entry): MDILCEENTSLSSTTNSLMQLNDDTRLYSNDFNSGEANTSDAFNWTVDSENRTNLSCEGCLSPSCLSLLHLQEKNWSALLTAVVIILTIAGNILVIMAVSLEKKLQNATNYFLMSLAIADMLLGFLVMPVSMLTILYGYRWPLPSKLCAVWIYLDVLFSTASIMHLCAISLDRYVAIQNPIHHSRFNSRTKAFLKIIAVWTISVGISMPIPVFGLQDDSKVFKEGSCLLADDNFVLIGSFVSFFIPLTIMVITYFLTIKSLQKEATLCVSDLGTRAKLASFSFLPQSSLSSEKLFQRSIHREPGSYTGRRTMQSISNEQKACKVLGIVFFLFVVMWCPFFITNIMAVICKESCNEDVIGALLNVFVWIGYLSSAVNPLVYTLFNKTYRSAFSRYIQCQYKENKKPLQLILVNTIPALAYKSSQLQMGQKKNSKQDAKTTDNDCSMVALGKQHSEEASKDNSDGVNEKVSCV

In the case of `NCCn1ncc2ccc3sc(Br)cc3c21` [Example 20, 2-(7-Bromo-1H-thieno[2,3-g]indazol-1-yl)ethylamine hydrochloride], the Ki on 5-HT2C receptor stood at 0.8 nM; at 5-HT2A receptor it was 18 nM.
In the case of `COc1nn(C[C@H](C)N)c2c1ccc1occc12` [Example 37, (S)-2-(3-Methoxy-1H-furo[2,3-g]indazol-1-yl)-1-methylethylamine fumarate], the Ki at 5-HT2C receptor is 0.5 nM; at 5-HT2A receptor ([3H] 5-HT binding, Ki=IC50/(1+[L]/[Kd]), read-out: Binding test Ki, 5-HT2A receptor) it was 8.7 nM.
For the compound `CCc1nn(CCN)c2c1ccc1occc12` [Example 55, 2-(3-Ethyl-1H-furo[2,3-g]indazol-1-yl)ethylamine dihydrochloride], the Ki turned out to be 4.1 nM at 5-HT2C receptor and 50 nM on 5-HT2A receptor.
